Two compounds from patent US7129256B2, “Antiparkinsonism drugs” (Shionogi & Co., Ltd., priority 2000, dated 2006) can be followed below.

In assay [1] the test system is mice pre-treated with reserpine. The experiment in a line: reserpine-induced catalepsy test (bar test, catalepsy score). The note with it: reserpine 5 mg/kg i.p. The class given is in vivo, ddy mice (male). The method, then:
The effects of compound (IX) in single administration and in combination with L-DOPA on cataleptic responses were examined in mice pre-treated with a monoamine-depleting drug, reserpine.
Reserpine (5 mg/kg, i.p., Apoplon Inj, Daiichi Pharmaceutical) was administrated to ddy mice (male). On the next day, compound (IX) (0.3, 1, 3 mg/kg, p.o.) with or without L-DOPA (25, 100 mg/kg, i.p., dissolved in 0.1N HCl and diluted with distilled water for injection (Otsuka Pharmaceutical)) was administrated to the mice and catalepsy test was performed after 1 hour. When L-DOPA was administrated, mice were pre-treated with carbidopa (25 mg/kg, i.p., 0.5% lactic acid) before 30 min.
The forelimbs or hindlimbs of each mouse were placed on a 4.5 cm high horizontal bar and the time was measured (cut off time 30 sec) until both legs reach the floor. The cataleptic responses were scored as follows (less than 5 sec.: 0 point, 5 sec. to less than 10 sec.: 1 point, 10 sec to less than 15 sec.: 2 points, 15 sec. to than 20 sec.: 3 points, 20 sec. to less than 25 sec.: 4 points, 25 sec. to less than 30 sec.: 5 points, 30 sec. or more: 6 points).
For forelimbs, the scores for 3 repetitive tests were summated. […] The catalepsy scores were calculated as the total scores for forelimbs and hindlimbs.

Another assay deals with normal mice. The experiment in a line: spontaneous locomotor activity after oral administration to normal mice (SCANET). The class given is in vivo, C57BL/6 mice (male). More on the design: spontaneous locomotor activity / spontaneous locomotor activity, Total: unit not given here. The note with it: for spontaneous locomotor activity, Total: total for 5 hours after administration. The protocol: The enhancing effects of compound (IX) on the spontaneous locomotor activity were examined in normal mice.
Compound (IX) was orally administrated to C57BL/6 mice (male) and the spontaneous locomotor activity was measured with a locomotor activity measuring apparatus (SCANET, TOYO sangyo). Mice were familiarized to the cage of the apparatus for at least 60 min. Compound (IX) (1,3,10 mg/kg) or vehicle (vehicle, distilled water Otsuka) was administrated orally. The spontaneous locomotor activity was measured for 5 hours after the mice were returned to the cage.

A further assay concerns MPTP-treated mice. The experiment in a line: spontaneous locomotor activity of MPTP-treated mice. In kind it is in vivo, C57BL/6 mice (male). The conditions noted are these: MPTP 40 mg/kg × 2. The method, then:
Mice injected with a dopaminergic toxin, MPTP were used as a model for Parkinson's disease and the effects of single administration of compound (IX) on the reduction of the spontaneous locomotor activity caused by MPTP-treatment were examined.
MPTP (40 mg/kg, i.p., saline) was injected twice at 24-hr intervals to C57BL/6 mice (male), and the day after the last administration, the mice were placed in locomotor activity measuring apparatus. After 30 min, compound (IX) alone (0.3, 1, 3 mg/kg, p.o.) was administered.

Marks after values point to notes of the source that are not given here.

Consider `N[C@@H](Cc1ccc(O)c(O)c1)C(=O)O` [L-DOPA, reference compound], for which, in assay [1] (L-DOPA 100 mg/kg i.p. + solvent p.o., 1 hour after administration), the “catalepsy score, mean” value came to 23.0.

In the case of `C[C@@H]1OC(=O)N[C@@H]1C(=O)NC(Cc1cscn1)C(=O)N1CCC[C@H]1C` (stereo in doubt) [Compound (IX)], the spontaneous locomotor activity in the assay with normal mice (1 mg/kg p.o., Time 0–30) stood at 3737; in the assay on normal mice (1 mg/kg p.o., Time 30–0 (before administration)), 436; with normal mice (1 mg/kg p.o., Time 30–60), 842; with normal mice (1 mg/kg p.o., Time 60–30 (before administration)) it was 1016; in the assay with normal mice (1 mg/kg p.o., Time 60–90), 1178; in the assay on normal mice (1 mg/kg p.o., Time 90–120), 1281. Moreover, the spontaneous locomotor activity was 991 with normal mice (1 mg/kg p.o., Time 120–150); 273 in the assay with normal mice (1 mg/kg p.o., Time 150–180); 411 in the assay with normal mice (1 mg/kg p.o., Time 180–210); 135 in the assay with normal mice (1 mg/kg p.o., Time 210–240); 463 in the assay with normal mice (1 mg/kg p.o., Time 240–270); 366 in the assay with normal mice (1 mg/kg p.o., Time 270–300). Moreover, the spontaneous locomotor activity in the assay on normal mice (3 mg/kg p.o., Time 0–30) is 3755; in the assay on normal mice (3 mg/kg p.o., Time 30–0 (before administration)), 782; in the assay with normal mice (3 mg/kg p.o., Time 30–60), 2626; with normal mice (3 mg/kg p.o., Time 60–30 (before administration)), 2349; in the assay with normal mice (3 mg/kg p.o., Time 60–90), 2690; in the assay with normal mice (3 mg/kg p.o., Time 90–120), 2632. Further, the spontaneous locomotor activity in the assay with normal mice (3 mg/kg p.o., Time 120–150) came to 2230; in the assay with normal mice (3 mg/kg p.o., Time 150–180), 868; with normal mice (3 mg/kg p.o., Time 180–210) it was 377; with normal mice (3 mg/kg p.o., Time 210–240), 940; in the assay on normal mice (3 mg/kg p.o., Time 240–270), 266; in the assay with normal mice (3 mg/kg p.o., Time 270–300), 597. The spontaneous locomotor activity amounted to 5910 with normal mice (10 mg/kg p.o., Time 0–30); 401 in the assay on normal mice (10 mg/kg p.o., Time 30–0 (before administration)); 5079 with normal mice (10 mg/kg p.o., Time 30–60); 1700 in the assay with normal mice (10 mg/kg p.o., Time 60–30 (before administration)); 5485 in the assay with normal mice (10 mg/kg p.o., Time 60–90); 6138 in the assay with normal mice (10 mg/kg p.o., Time 90–120). Further, the spontaneous locomotor activity with normal mice (10 mg/kg p.o., Time 120–150) stood at 5582; in the assay on normal mice (10 mg/kg p.o., Time 150–180), 5390; with normal mice (10 mg/kg p.o., Time 180–210), 4218; in the assay with normal mice (10 mg/kg p.o., Time 210–240), 3297; in the assay on normal mice (10 mg/kg p.o., Time 240–270) it was 2305; in the assay on normal mice (10 mg/kg p.o., Time 270–300) it was 1457. Also, the “spontaneous locomotor activity, Total” value was 9676 in the assay on normal mice (1 mg/kg p.o.); 16941* in the assay on normal mice (3 mg/kg p.o., P < 0.05 vs vehicle); 44861** in the assay with normal mice (10 mg/kg p.o., P < 0.01 vs vehicle); 2731 ± 875 in the assay with MPTP-treated mice (compound (IX) alone 0.3 mg/kg p.o.); 4370 ± 1507 with MPTP-treated mice (compound (IX) alone 1 mg/kg p.o.). Also, the “dose that increased the spontaneous locomotor activity” value with normal mice (p.o., normal mice) is reported as at least 3 mg/kg. Moreover, the “catalepsy score, mean” value in assay [1] (compound (IX) 0.3 mg/kg p.o. + L-DOPA 100 mg/kg i.p., 1 hour) came out at 17.4.
